Key:
[1] = target: CB1 cannabinoid receptors (CNR1 cAMP Hunter cell line) (Homo sapiens, UniProt P21554); experiment: cAMP Hunter (DiscoveRx HitHunter cAMP XS+) allosteric modulation assay with CP55,940 at EC20; format: cell-based
Protocol: Once it was established that the cells were healthy and growing normally, cells were passaged from flasks using cell dissociation reagent buffer and seeded into white walled clear bottom 384-well microplates for compound profiling. For profiling, cells were seeded at a density of 10000 cells per well in a total volume of 20 μL and were allowed to adhere and recover overnight prior to compound addition. Cells were treated the following day using the protocols shown below. cAMP modulation was determined using the DiscoveRx HitHunter cAMP XS+ assay.
Media was aspirated from cells and replaced with 10 μL 1:1 HBSS/Hepes: cAMP XS+Ab reagent. Agonist (CP55,940) dose curves were performed to determine the EC20 value for the following testing with compounds. 5 μL of 4× agonist was added to each well with an equal concentration of vehicle present. EC20 agonist concentration was determined directly from agonist dose curve.
For allosteric determination, cells were preincubated with compound followed by agonist challenge at the EC20 concentration. 5 μL of 4× compound was added to cells and incubated at 37° C. for 30 minutes. 5 μL of 4× EC20 agonist was added to cells and incubated at 37° C. for 30 minutes.
Signal Detection: After appropriate compound incubation, assay signal was generated through incubation with 20 μL cAMP XS+ED/CL lysis cocktail for one hour followed by incubation with 20 μL cAMP XS+EA reagent for three hours at room temperature. Microplates were read following signal generation with a PerkinElmer Envision™ instrument for chemiluminescent signal detection.
Data Analysis: Dose curves were plotted using GraphPad Prism or Activity Base. The percentage activity is calculated using the following formula: % Activity=100%×(1−(mean RLU of test sample−mean RLU of MAX control)/(mean RLU of vehicle control [EC20 for PAM]−mean RLU of MAXcontrol).
Agonist (CP55,940) dose curves were performed for the CNR1 PathHunter and cAMP Hunter cell lines. […] The cAMP assay was performed in the presence of 20 μM forskolin (EC80).

[2] = test system: extracellular dopamine levels in nucleus accumbens; experiment: In vivo microdialysis, dopamine in shell of nucleus accumbens; design: species or system Sprague-Dawley male rats; settings: 30 mg/kg IP, rat nucleus accumbens shell, dialysate samples every 20 minutes; ANOVA p=0.325, NS
Protocol: Concentric microdialysis probes with 2 mm-long dialysis membranes were prepared as described previously (Pontieri, Tanda & DiChiara 1995). Sprague-Dawley male rats were anesthetized with Equithesin and probes were surgically implanted in the shell of nucleus accumbens (coordinates with respect to bregma: anterior, +2.2; lateral, −1.0; vertical −8.0 from dura). Ringer's solution (147 mM NaCl, 2.2 mM CaCl2, 4.0 mM KCl) was pumped through the dialysis probe at a constant flow rate of 1 uL/minute. […] Collection of dialysate samples started after 20 minutes, with samples collected every 20 minutes and immediately analyzed by a high-performance liquid chromatography system coupled to electrochemical detection to quantify dopamine.
Results are presented as group means (±SEM). Microdialysis data were analyzed using two-way ANOVA.

CB1 cannabinoid receptors (CNR1 cAMP Hunter cell line), sequence (P21554 whole entry): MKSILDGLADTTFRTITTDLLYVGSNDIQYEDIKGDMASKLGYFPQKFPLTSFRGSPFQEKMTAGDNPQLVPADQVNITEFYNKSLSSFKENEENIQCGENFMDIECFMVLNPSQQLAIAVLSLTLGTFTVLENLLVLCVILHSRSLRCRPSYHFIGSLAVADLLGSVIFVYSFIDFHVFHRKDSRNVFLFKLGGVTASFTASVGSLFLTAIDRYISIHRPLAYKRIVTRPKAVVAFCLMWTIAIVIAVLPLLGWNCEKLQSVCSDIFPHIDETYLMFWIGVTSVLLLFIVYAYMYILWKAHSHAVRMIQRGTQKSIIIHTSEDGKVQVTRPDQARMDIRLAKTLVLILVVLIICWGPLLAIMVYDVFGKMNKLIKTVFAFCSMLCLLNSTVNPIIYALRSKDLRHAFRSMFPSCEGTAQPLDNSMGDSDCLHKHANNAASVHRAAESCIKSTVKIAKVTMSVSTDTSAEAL

Structure (SMILES): O=[N+]([O-])c1cccc(-c2c(-c3ccccc3)[nH]c3ccccc23)c1 [Compound 8, 3-(3-Nitrophenyl)-2-phenyl-1H-indole]
- EC50 [1]: > 10000 nM
- Emax [1]: 54%

Structure (SMILES): O=[N+]([O-])C[C@H](c1ccccc1)c1c(-c2ccccc2)[nH]c2ccccc12 (single isomer, unassigned) [Compound 2]
- Emax [1]: 75%

Structure (SMILES): O=[N+]([O-])CC(c1ccccc1)c1c(-c2ccc(F)c(Cl)c2)[nH]c2ccccc12 (stereo not shown) [Compound 15, 2-(3-Chloro-4-fluorophenyl)-3-(2-nitro-1-phenylethyl)-1H-indole]
- EC50 [1]: 411 nM
- Emax [1]: 110%

Structure (SMILES): O=[N+]([O-])CC(c1ccccc1)c1c(-c2ccc3ccccc3c2)[nH]c2ccccc12 (stereo not shown) [Compound 6]
- EC50 [1]: 744 nM
- Emax [1]: 65%

Structure (SMILES): O=[N+]([O-])CC(c1ccccc1)c1cn(-c2ccccc2)c2ccccc12 (stereo not shown) [Compound 9, 3-(2-Nitro-1-phenylethyl)-1-phenyl-1H-indole]
- EC50 [1]: 920 nM
- Emax [1]: 105%

Structure (SMILES): O=[N+]([O-])CC(c1ccccc1)c1c(-c2ccccc2)[nH]c2ccc(Cl)cc12 (stereo not shown) [Compound 7, 5-Chloro-3-(2-nitro-1-phenylethyl)-2-phenyl-1H-indole]
- EC50 [1]: 1010 nM
- Emax [1]: 44%

Structure (SMILES): O=[N+]([O-])CC(c1ccccc1)c1c(-c2ccccc2)[nH]c2ccccc12 (racemic) [Compound 1, 3-(2-Nitro-1-phenylethyl)-2-phenyl-1H-indole, reference compound]
- Emax [1]: 80%
- change in extracellular dopamine levels after injection [2]: no significant change

Structure (SMILES): O=[N+]([O-])C[C@@H](c1ccccc1)c1c(-c2ccccc2)[nH]c2ccccc12 (single isomer, unassigned) [Compound 3]
- Emax [1]: 96%

Structure (SMILES): O=[N+]([O-])CC(c1ccccn1)c1c(-c2ccccc2)[nH]c2ccccc12 (racemic) [Compound 10, 3-(2-Nitro-1-(pyridin-2-yl)ethyl)-2-phenyl-1H-indole]
- EC50 [1]: 456 nM
- Emax [1]: 96%

Structure (SMILES): O=[N+]([O-])CC(c1ccc(N2CCCCC2)cc1)c1c(-c2ccccc2)[nH]c2ccccc12 (stereo not shown) [Compound 4, 3-(2-Nitro-1-(4-(piperidin-1-yl)phenyl)ethyl)-2-phenyl-1H-indole]
- EC50 [1]: 590 nM
- Emax [1]: 101%

Structure (SMILES): O=[N+]([O-])C[C@@H](c1ccccn1)c1c(-c2ccccc2)[nH]c2ccccc12 (single isomer, unassigned) [Compound 12]
- EC50 [1]: 417 nM
- Emax [1]: 119%

Structure (SMILES): O=[N+]([O-])CC(c1ccc(-c2ccccc2)cc1)c1c(-c2ccccc2)[nH]c2ccccc12 (stereo not shown) [Compound 5, 3-(1-([1,1′-Biphenyl]-4-yl)-2-nitroethyl)-2-phenyl-1H-indole]
- EC50 [1]: > 10000 nM
- Emax [1]: 0%

Structure (SMILES): O=[N+]([O-])CC(c1ccccc1)c1c(-c2ccc(Cl)cc2)[nH]c2ccccc12 (stereo not shown) [Compound 14, 2-(4-Chlorophenyl)-3-(2-nitro-1-phenylethyl)-1H-indole]
- EC50 [1]: 650 nM
- Emax [1]: 115%

Structure (SMILES): O=[N+]([O-])CC(c1ccccc1)c1c(-c2ccc(F)cc2)[nH]c2ccccc12 (stereo not shown) [Compound 13, 2-(4-Fluorophenyl)-3-(2-nitro-1-phenylethyl)-1H-indole]
- EC50 [1]: 327 nM
- Emax [1]: 110%

Structure (SMILES): O=[N+]([O-])C[C@H](c1ccccn1)c1c(-c2ccccc2)[nH]c2ccccc12 (single isomer, unassigned) [Compound 11]
- EC50 [1]: 300 nM
- Emax [1]: 120%
